Experimental findings from patent US9988371B2, “Benzimidazole analogues and related methods” (The Arizona Board of Regents, on Behalf of the University …, priority 2014, dated 2018) are described below.

One assay has as its target T1, FYN (Homo sapiens, UniProt P06241).
T1 construct: purchased KINOMEscan
In words: KINOMEscan kinase panel. Type of assay: binding. The following applies: 50 nM. How it is done:
(§1) Pz-1 was exceptionally potent on RET and all tested RET mutants including gatekeeper mutants RET/V804M at less than 1 nM (FIGS. 1-3). The RET biochemical assay described herein was not suitable to determine activity of inhibitors having an IC50 of less than 1 nM, as the concentration of the RET enzyme in the assay was 2 nM. An intermediate compound was therefore used for the kinetics studies. […] Pz-1 was screened at concentration of 50 nM against 91 kinases in KINOMEscan, representing a diversity of each Kinome cluster. The kinase assays in KINOMEScan were more sensitive than the biochemical assays described above.

The next assay has as its target T2, SRC (Homo sapiens, UniProt P12931).
T2 construct: purchased KINOMEscan
In words: KINOMEscan kinase panel. Type of assay: binding. The following applies: 50 nM. As for the experimental part:
as §1

The test system of a further assay is GKA. In words: KINOMEscan kinase panel. As to conditions: 50 nM. Type of assay: binding. How it is done: as §1
A further assay deals with T3, TRKC (Homo sapiens, UniProt Q16288).
T3 construct: purchased KINOMEscan
In words: KINOMEscan kinase panel. As to conditions: 50 nM. It counts as binding. How it is done: as §1

Another assay addresses T4, TRKB (Homo sapiens, UniProt Q16620).
T4 construct: purchased KINOMEscan
The experiment in a line: KINOMEscan kinase panel. It counts as binding. The following applies: 50 nM. As for the experimental part: as §1

For assay [1], the system named is LC-2/ad cells (NSCLC expressing CCDC6-RET). In words: Growth curve proliferation assay, LC-2/ad cells. Type of assay: cell-based. As to conditions: Homo sapiens, last day of growth curves. As for the experimental part: FIG. 5: Effects exerted by indicated concentrations of Pz-1 or vehicle (NT: not treated) on proliferation of TT (human MTC cell line expressing RET/C634W), Lc-2/ad (human NSCLC expressing CCDC6-RET) and Nthy-ori-3-1 (thyroid non-transformed) cell lines. Data are the mean±SD (Standard Deviation) of one experiment performed in triplicate. Bottom, right) Growth inhibition IC50 of Pz-1 for the different cell lines: 95% CI (confidence intervals) are indicated in brackets. Cells were seeded in triplicate in 60-mm dishes and kept in 5% (Nthy-ori-3-1) or 10% (TT and Lc-2/ad) fetal calf serum. The day after plating, different concentrations of Pz-1 or vehicle were added to the medium and changed every 2-3 days. Cells were counted every 2-3 days and cell numbers were reported±SD (Standard Deviation). IC50 doses (with Confidence Intervals) were calculated through a curve fitting analysis from the last day of growth curves using the PRIZM software program (Graphpad Software Inc).
Nthy-ory-3-1 and TTcells were seeded in 60-mm dishes. […] Cells were counted every 2-3 days. […] Parental and RET/PTC-expressing Ba/F3 were kept in 10% fetal calf serum in 6-multi wells and counted every day for 4 consecutive days, changing media every 2 days. […] IC50 doses were calculated through a curve fitting analysis from the last day of growth curves using the PRISM software program (Graphpad Software Inc). […]

The target in a further assay is T5, RET/C634Y (Homo sapiens, UniProt P07949, C634Y).
T5 construct: expressed in transfected cells; host or cells: NIH3T3 fibroblasts, grown as tumours in BALB/c nu/nu mice
The experiment in a line: In vivo target inhibition, RET phosphorylation and signaling in RET/C634Y-induced tumors. Also noted: species or system nude mice. As to conditions: 48 hr, 1.0 or 3.0 mg/kg daily. As for the experimental part: FIG. 9: Photographs of blots showing effects of Pz-1 on cellular phosphorylation events in tumors induced in nude mice (from FIG. 8) by injection of NIH3T3 fibroblasts transformed by RET/C634Y or HRAS/G12V. […] Some of the vehicle-treated tumors, at the end of the tumor growth experiment described in FIG. 8, were treated for 48 hr with different doses of Pz-1 (TR) or left untreated (NT). At the end of the treatment, 50 μg of tumor protein lysates were subjected to immunoblotting with anti-phospho-Y1062 (αp1062) and anti-phospho-905 (αpY905) RET antibodies, anti-phospho-MAPK (αpMAPK, T302/Y304), anti-phospho-SHC (αpSHC, Y317), anti-phospho-p70S6K (αpp70S6K, T389), anti-phospho-S6RP (αpS6RP, S235/S236), and anti-phospho-VEGFR2 (αpVEGFR2 pY1175) antibodies. The blots were normalized using anti-RET (αRET), anti-SHC (αSHC), anti-MAPK (αMAPK), anti-p70S6K (αp70S6K), anti-S6RP (αS6RP) or anti-VEGFR2 (αVEGFR2) antibodies.
Some of the vehicle-treated tumors, at the end of the tumor growth experiment reported in FIG. 8, were treated for 48 hr with different doses of Pz-1 (1.0 or 3.0 mg/kg daily) or left untreated. […]

T1 sequence (P06241 whole entry): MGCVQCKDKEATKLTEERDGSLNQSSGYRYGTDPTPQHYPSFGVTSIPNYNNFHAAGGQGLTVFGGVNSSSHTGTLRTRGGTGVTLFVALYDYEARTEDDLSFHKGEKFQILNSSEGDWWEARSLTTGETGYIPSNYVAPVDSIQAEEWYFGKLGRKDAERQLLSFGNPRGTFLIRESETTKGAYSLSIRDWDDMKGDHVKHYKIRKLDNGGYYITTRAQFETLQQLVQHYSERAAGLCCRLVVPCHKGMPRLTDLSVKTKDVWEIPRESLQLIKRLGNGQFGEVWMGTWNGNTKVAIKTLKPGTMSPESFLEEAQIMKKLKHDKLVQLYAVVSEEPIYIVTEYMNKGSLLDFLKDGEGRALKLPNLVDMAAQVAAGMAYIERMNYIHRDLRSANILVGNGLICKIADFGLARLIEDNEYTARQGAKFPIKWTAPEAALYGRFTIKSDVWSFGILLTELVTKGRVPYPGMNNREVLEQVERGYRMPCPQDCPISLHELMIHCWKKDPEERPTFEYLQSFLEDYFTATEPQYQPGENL
T5 sequence (P07949 29-1072 isoform P07949-2 C634Y limits assumed): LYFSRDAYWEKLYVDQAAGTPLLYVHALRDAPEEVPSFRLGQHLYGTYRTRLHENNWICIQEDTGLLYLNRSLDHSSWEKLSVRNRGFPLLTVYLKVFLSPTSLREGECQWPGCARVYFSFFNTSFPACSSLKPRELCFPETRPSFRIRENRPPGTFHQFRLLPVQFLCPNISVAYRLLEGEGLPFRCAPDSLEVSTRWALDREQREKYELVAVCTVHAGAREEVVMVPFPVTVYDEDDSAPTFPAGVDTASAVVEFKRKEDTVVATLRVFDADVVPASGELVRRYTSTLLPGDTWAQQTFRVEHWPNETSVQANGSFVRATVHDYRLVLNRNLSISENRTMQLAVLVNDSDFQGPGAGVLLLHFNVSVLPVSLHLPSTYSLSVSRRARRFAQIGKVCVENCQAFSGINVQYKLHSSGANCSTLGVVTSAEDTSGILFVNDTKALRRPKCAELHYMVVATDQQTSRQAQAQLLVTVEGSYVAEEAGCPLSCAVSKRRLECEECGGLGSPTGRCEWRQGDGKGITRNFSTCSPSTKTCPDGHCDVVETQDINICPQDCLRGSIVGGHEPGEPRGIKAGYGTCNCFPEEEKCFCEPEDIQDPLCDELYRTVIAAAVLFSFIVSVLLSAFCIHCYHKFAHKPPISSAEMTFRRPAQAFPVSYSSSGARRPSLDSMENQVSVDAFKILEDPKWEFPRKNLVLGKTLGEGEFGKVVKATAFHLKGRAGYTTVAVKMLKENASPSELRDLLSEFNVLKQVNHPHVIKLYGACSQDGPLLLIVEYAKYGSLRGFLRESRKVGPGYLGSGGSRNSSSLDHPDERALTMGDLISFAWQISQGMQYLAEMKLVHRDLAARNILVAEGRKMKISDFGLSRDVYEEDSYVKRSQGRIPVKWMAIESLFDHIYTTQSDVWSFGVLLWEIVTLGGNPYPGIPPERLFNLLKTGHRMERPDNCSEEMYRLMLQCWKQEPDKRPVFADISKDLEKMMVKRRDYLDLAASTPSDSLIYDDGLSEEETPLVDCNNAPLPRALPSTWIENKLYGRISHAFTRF
T4 sequence (Q16620 32-822): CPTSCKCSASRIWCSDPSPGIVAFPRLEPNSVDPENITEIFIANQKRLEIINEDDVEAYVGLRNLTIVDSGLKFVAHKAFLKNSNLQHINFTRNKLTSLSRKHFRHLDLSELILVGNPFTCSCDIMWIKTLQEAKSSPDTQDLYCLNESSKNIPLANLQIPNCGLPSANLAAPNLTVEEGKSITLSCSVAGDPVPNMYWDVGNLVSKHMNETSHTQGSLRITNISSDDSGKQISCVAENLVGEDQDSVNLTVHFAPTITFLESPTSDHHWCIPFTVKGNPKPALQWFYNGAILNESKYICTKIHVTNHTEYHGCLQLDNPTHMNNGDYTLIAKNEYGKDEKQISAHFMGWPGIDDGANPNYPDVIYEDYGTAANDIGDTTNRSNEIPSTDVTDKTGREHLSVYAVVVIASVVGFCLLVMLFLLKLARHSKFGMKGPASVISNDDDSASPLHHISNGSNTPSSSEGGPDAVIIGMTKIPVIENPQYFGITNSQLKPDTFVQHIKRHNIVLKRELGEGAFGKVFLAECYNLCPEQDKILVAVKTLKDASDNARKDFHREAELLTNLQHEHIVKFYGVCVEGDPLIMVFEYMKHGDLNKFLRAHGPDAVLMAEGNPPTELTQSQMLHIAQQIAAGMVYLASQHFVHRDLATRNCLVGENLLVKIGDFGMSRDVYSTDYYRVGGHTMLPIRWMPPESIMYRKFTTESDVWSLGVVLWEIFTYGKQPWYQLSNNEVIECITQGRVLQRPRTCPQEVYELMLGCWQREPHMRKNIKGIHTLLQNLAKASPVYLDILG
T3 sequence (Q16288 32-839): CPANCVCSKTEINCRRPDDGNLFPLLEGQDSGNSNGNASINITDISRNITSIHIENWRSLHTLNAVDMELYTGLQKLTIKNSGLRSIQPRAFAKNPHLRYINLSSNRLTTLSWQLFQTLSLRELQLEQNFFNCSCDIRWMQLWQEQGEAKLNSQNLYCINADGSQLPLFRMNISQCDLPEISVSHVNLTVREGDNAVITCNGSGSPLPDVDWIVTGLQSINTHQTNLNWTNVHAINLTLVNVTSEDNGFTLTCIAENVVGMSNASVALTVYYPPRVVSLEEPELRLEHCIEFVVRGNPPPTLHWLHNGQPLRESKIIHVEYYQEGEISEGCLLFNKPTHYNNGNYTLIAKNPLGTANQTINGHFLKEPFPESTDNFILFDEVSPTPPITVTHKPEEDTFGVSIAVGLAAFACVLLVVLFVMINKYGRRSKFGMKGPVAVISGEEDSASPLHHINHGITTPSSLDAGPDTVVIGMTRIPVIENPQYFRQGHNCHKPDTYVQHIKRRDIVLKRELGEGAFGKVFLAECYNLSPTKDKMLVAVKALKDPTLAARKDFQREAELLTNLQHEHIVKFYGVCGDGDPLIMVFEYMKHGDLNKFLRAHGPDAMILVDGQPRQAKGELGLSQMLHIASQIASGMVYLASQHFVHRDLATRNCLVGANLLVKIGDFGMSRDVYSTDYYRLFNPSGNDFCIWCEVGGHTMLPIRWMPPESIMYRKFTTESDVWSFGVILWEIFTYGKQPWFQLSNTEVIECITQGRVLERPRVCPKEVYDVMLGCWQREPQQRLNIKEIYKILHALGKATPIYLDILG
T2 sequence (P12931 whole entry): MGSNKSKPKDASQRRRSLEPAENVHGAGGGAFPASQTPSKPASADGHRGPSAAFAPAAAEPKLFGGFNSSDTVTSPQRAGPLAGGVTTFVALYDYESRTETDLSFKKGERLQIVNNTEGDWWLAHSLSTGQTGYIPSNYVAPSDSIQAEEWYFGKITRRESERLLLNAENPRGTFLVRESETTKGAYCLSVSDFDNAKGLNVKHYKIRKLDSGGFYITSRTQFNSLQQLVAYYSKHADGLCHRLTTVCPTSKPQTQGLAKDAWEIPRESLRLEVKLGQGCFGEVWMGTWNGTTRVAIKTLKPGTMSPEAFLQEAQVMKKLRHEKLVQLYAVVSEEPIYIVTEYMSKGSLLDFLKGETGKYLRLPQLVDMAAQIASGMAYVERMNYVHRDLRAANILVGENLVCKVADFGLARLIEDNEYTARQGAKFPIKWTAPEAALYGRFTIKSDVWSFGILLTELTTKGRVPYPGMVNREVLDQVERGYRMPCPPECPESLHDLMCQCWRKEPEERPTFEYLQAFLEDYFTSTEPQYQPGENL

As for `Cn1cc(-c2ccc3c(c2)ncn3-c2ccc(CC(=O)Nc3cc(C(C)(C)C)on3)cc2)cn1` [Pz-1, N-(5-(tert-butyl)isoxazol-3-yl)-2-(4-(5-(1-methyl-1H-pyrazol-4-yl)-1H-benzo[d]imidazol-1-yl)phenyl)acetamide], the inhibition at 0.05 µM against FYN, on SRC, against TRKC and at TRKB was about 90% each time. Besides, the “inhibition of GKA” value in the assay with GKA was about 90%. Moreover, the IC50 in assay [1] came to 0.907 nM. On RET/C634Y, the “RET phosphorylation and intracellular signaling (SHC, MAPK, p70S6K and S6RP) in tumors” value is “inhibited”.
